The structures appear in SMILES notation.

Assay [1] has as its system D2 dopamine receptor (D2R) S193 mutants (Val, Leu, Ala). In words: Mutagenesis of Ser193 (S193) of D2R, ligand affinity. The class given is binding. The note with it: S193 mutated to a larger residue (Val or Leu). The source says:
(§1) To test the embodiment's predictions, mutagenesis experiments were designed.

Assay [2] concerns the target D2 dopamine receptor (D2R) S193 mutants (Val, Leu, Ala) (Homo sapiens, UniProt P14416, S193A). The description is as above. The class given is binding. The settings on record: S193 mutated to a smaller residue (Ala).
Text: as §1

For assay [3], the system named is D2 dopamine receptor (D2R) Val91 and Trp100 mutants. In words: Mutagenesis of Val91 and Trp100 of D2R, ligand affinity. The note with it: mutation of Val91 and Trp100, top of the ligand binding pocket. The source says:
Mutations to several residues surrounding the top and bottom of the binding pocket were also considered. Unlike Glide, the embodiment predicts that all four ligands will position a fluorobenzene ring at the bottom of the binding pocket, packing favorably against Trp386 (W386). […] At the top of the ligand binding pocket, near Val91 and Trp100, the embodiment predicts that the pimozide and benperidol will place identical functional groups that differ somewhat from those of spiperone and mespiperone.

Chain of D2 dopamine receptor (D2R) S193 mutants (Val, Leu, Ala) (Homo sapiens, UniProt P14416, S193A) (P14416 whole entry S193A): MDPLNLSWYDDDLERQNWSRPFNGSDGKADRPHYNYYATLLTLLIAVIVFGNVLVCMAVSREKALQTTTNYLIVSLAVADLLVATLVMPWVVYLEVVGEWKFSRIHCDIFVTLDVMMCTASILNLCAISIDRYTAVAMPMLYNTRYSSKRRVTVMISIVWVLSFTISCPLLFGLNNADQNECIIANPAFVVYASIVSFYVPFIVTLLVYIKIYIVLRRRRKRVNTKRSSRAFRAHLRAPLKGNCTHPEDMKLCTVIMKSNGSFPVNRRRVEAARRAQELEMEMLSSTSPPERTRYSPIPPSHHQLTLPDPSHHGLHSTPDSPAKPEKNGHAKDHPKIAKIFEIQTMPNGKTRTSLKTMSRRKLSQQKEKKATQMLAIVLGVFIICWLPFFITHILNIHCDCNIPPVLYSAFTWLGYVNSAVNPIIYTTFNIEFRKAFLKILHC

`O=C(CCCN1CCC(n2c(O)nc3ccccc32)CC1)c1ccc(F)cc1` [benperidol]: the “change of affinity on mutation” value in assay [1] is recorded as “increases”; in assay [2], “not observed”. The “effect of mutation on ligand” value in assay [3] is “slightly differently from spiperone and mespiperone”.

The record behind these values is patent US12633373B2, “Systems and methods to predict structures and properties of biomolecule-ligand complexes and uses thereof” (The Board of Trustees of the Leland Stanford Junior …, priority 2020, dated 2026).
